Reference: PubChem BioAssay AID1963841 (Molecular Pharmacology Branch, DTP, NCI, 2024)

Tested on: 439559-082-T-J2-PDC spheroid viability
Test: Anticancer human tumor 439559-082-T-J2-PDC patient-derived colon adenocarcinoma cell line growth inhibition [POLQ]
Settings: spheroids with HUVEC and MSC; for IC50: curve of first compound; for viability, T/C: stronger effect = lower value
Outline: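 Growth inhibition in 3D: complex spheroids (tumor PDC, HUVEC, MSC) treated with POLQ inhibitor combinations; where Cmax unknown, highest tested concentration 10 microM, except SN-38 at 1 microM.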

[1] = second compound 0.0316 µM, first compound 0.0316 µM
[2] = second compound 0.0316 µM, first compound 0.1 µM
[3] = second compound 0.0316 µM, first compound 0.316 µM
[4] = second compound 0.0316 µM, first compound 1 µM
[5] = second compound 0.0316 µM, first compound 3.16 µM
[6] = second compound 0.0316 µM, first compound 10 µM
[7] = second compound 0.1 µM, first compound 0.0316 µM
[8] = second compound 0.1 µM, first compound 0.1 µM
[9] = second compound 0.1 µM, first compound 0.316 µM
[10] = second compound 0.1 µM, first compound 1 µM
[11] = second compound 0.1 µM, first compound 3.16 µM
[12] = second compound 0.1 µM, first compound 10 µM
[13] = second compound 0.316 µM, first compound 0.0316 µM
[14] = second compound 0.316 µM, first compound 0.1 µM
[15] = second compound 0.316 µM, first compound 0.316 µM
[16] = second compound 0.316 µM, first compound 1 µM
[17] = second compound 0.316 µM, first compound 3.16 µM
[18] = second compound 0.316 µM, first compound 10 µM
[19] = second compound 1 µM, first compound 0.0316 µM
[20] = second compound 1 µM, first compound 0.1 µM
[21] = second compound 1 µM, first compound 0.316 µM
[22] = second compound 1 µM, first compound 1 µM
[23] = second compound 1 µM, first compound 3.16 µM
[24] = second compound 1 µM, first compound 10 µM
[25] = second compound 3.16 µM, first compound 0.0316 µM
[26] = second compound 3.16 µM, first compound 0.1 µM
[27] = second compound 3.16 µM, first compound 0.316 µM
[28] = second compound 3.16 µM, first compound 1 µM
[29] = second compound 3.16 µM, first compound 3.16 µM
[30] = second compound 3.16 µM, first compound 10 µM
[31] = second compound 10 µM, first compound 0.0316 µM
[32] = second compound 10 µM, first compound 0.1 µM
[33] = second compound 10 µM, first compound 0.316 µM
[34] = second compound 10 µM, first compound 1 µM
[35] = second compound 10 µM, first compound 3.16 µM
[36] = second compound 10 µM, first compound 10 µM
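Further: spheroids exposed to compounds for seven days before readout.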
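Wherever viability, T/C is given: 100% = DMSO vehicle control viability.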

## CC1COCCN1c1cc(-c2ccnn2C)c2ccnc(-c3ccn[nH]3)c2n1 (stereo unspecified) + Nc1ccc(C#CCN(C(=O)Cc2ncc(C(F)(F)F)cc2C(F)(F)F)c2ccc(F)cc2)nn1
Second compound 0.0316 µM
  IC50: 475 nM
Second compound 0.1 µM
  IC50: > 10000 nM
Second compound 0.316 µM
  IC50: > 10000 nM
Second compound 1 µM
  IC50: 981 nM
Second compound 3.16 µM
  IC50: 313 nM
Second compound 10 µM
  IC50: 293 nM
[1]
  viability, T/C: 105%
[2]
  viability, T/C: 82.9%
[3]
  viability, T/C: 50.7%
[4]
  viability, T/C: 41.2%
[5]
  viability, T/C: 57%
[6]
  viability, T/C: 49.1%
[7]
  viability, T/C: 105%
[8]
  viability, T/C: 97.1%
[9]
  viability, T/C: 57.5%
[10]
  viability, T/C: 48.9%
[11]
  viability, T/C: 55.8%
[12]
  viability, T/C: 50.3%
[13]
  viability, T/C: 105%
[14]
  viability, T/C: 89.5%
[15]
  viability, T/C: 52.9%
[16]
  viability, T/C: 49.9%
[17]
  viability, T/C: 57.1%
[18]
  viability, T/C: 52.3%
[19]
  viability, T/C: 108%
[20]
  viability, T/C: 84.7%
[21]
  viability, T/C: 60.1%
[22]
  viability, T/C: 42.4%
[23]
  viability, T/C: 56.8%
[24]
  viability, T/C: 46%
[25]
  viability, T/C: 111%
[26]
  viability, T/C: 78.1%
[27]
  viability, T/C: 50.1%
[28]
  viability, T/C: 43.1%
[29]
  viability, T/C: 52.2%
[30]
  viability, T/C: 47.9%
[31]
  viability, T/C: 93.3%
[32]
  viability, T/C: 74.3%
[33]
  viability, T/C: 47.4%
[34]
  viability, T/C: 48.7%
[35]
  viability, T/C: 54.2%
[36]
  viability, T/C: 42.8%

## COc1ccc([C@@H](O)c2cc(-c3ncnc4cc(N5CCOCC5)ccc34)c(F)cc2Cl)nn1 + Nc1ccc(C#CCN(C(=O)Cc2ncc(C(F)(F)F)cc2C(F)(F)F)c2ccc(F)cc2)nn1
Second compound 0.0316 µM
  IC50: > 10000 nM
Second compound 0.1 µM
  IC50: > 10000 nM
Second compound 0.316 µM
  IC50: > 10000 nM
Second compound 1 µM
  IC50: > 10000 nM
Second compound 3.16 µM
  IC50: > 10000 nM
Second compound 10 µM
  IC50: > 10000 nM
[1]
  viability, T/C: 105%
[2]
  viability, T/C: 86%
[3]
  viability, T/C: 89.1%
[4]
  viability, T/C: 89.4%
[5]
  viability, T/C: 84%
[6]
  viability, T/C: 87.5%
[7]
  viability, T/C: 102%
[8]
  viability, T/C: 93.2%
[9]
  viability, T/C: 92.7%
[10]
  viability, T/C: 88.1%
[11]
  viability, T/C: 78%
[12]
  viability, T/C: 87.3%
[13]
  viability, T/C: 119%
[14]
  viability, T/C: 105%
[15]
  viability, T/C: 104%
[16]
  viability, T/C: 79.5%
[17]
  viability, T/C: 88.9%
[18]
  viability, T/C: 81%
[19]
  viability, T/C: 95%
[20]
  viability, T/C: 106%
[21]
  viability, T/C: 85.2%
[22]
  viability, T/C: 83.7%
[23]
  viability, T/C: 86.1%
[24]
  viability, T/C: 86.3%
[25]
  viability, T/C: 90.1%
[26]
  viability, T/C: 107%
[27]
  viability, T/C: 90.7%
[28]
  viability, T/C: 80.2%
[29]
  viability, T/C: 83.7%
[30]
  viability, T/C: 87.8%
[31]
  viability, T/C: 94.1%
[32]
  viability, T/C: 90%
[33]
  viability, T/C: 90.1%
[34]
  viability, T/C: 99.7%
[35]
  viability, T/C: 81.8%
[36]
  viability, T/C: 77.4%

## Cn1ncnc1[C@H]1c2n[nH]c(=O)c3cc(F)cc(c23)N[C@@H]1c1ccc(F)cc1 + Nc1ccc(C#CCN(C(=O)Cc2ncc(C(F)(F)F)cc2C(F)(F)F)c2ccc(F)cc2)nn1
Second compound 0.0316 µM
  IC50: > 100 nM
Second compound 0.1 µM
  IC50: > 100 nM
Second compound 0.316 µM
  IC50: > 100 nM
Second compound 1 µM
  IC50: > 100 nM
Second compound 3.16 µM
  IC50: > 100 nM
Second compound 10 µM
  IC50: > 100 nM
Second compound 0.0316 µM, first compound 0.000316 µM
  viability, T/C: 91.8%
Second compound 0.0316 µM, first compound 0.001 µM
  viability, T/C: 104%
Second compound 0.0316 µM, first compound 0.00316 µM
  viability, T/C: 89.9%
Second compound 0.0316 µM, first compound 0.01 µM
  viability, T/C: 103%
[1]
  viability, T/C: 101%
[2]
  viability, T/C: 91.7%
Second compound 0.1 µM, first compound 0.000316 µM
  viability, T/C: 103%
Second compound 0.1 µM, first compound 0.001 µM
  viability, T/C: 88.9%
Second compound 0.1 µM, first compound 0.00316 µM
  viability, T/C: 86.6%
Second compound 0.1 µM, first compound 0.01 µM
  viability, T/C: 93.2%
[7]
  viability, T/C: 93.1%
[8]
  viability, T/C: 89.1%
Second compound 0.316 µM, first compound 0.000316 µM
  viability, T/C: 99.4%
Second compound 0.316 µM, first compound 0.001 µM
  viability, T/C: 112%
Second compound 0.316 µM, first compound 0.00316 µM
  viability, T/C: 90.2%
Second compound 0.316 µM, first compound 0.01 µM
  viability, T/C: 94.6%
[13]
  viability, T/C: 99.1%
[14]
  viability, T/C: 90%
Second compound 1 µM, first compound 0.000316 µM
  viability, T/C: 111%
Second compound 1 µM, first compound 0.001 µM
  viability, T/C: 105%
Second compound 1 µM, first compound 0.00316 µM
  viability, T/C: 104%
Second compound 1 µM, first compound 0.01 µM
  viability, T/C: 102%
[19]
  viability, T/C: 94.3%
[20]
  viability, T/C: 102%
Second compound 3.16 µM, first compound 0.000316 µM
  viability, T/C: 85.2%
Second compound 3.16 µM, first compound 0.001 µM
  viability, T/C: 106%
Second compound 3.16 µM, first compound 0.00316 µM
  viability, T/C: 103%
Second compound 3.16 µM, first compound 0.01 µM
  viability, T/C: 96.2%
[25]
  viability, T/C: 99.4%
[26]
  viability, T/C: 94.2%
Second compound 10 µM, first compound 0.000316 µM
  viability, T/C: 93.1%
Second compound 10 µM, first compound 0.001 µM
  viability, T/C: 122%
Second compound 10 µM, first compound 0.00316 µM
  viability, T/C: 87.8%
Second compound 10 µM, first compound 0.01 µM
  viability, T/C: 85.4%
[31]
  viability, T/C: 101%
[32]
  viability, T/C: 112%
